Patent publication US6818656B2, “Method and composition for treatment of irritable bowel disease” (University of Florida, priority 2001, dated 2004)

Key:
[1] = tested on: stress-induced fecal output; experiment: Psychological stress-induced (water avoidance) IBS model, SC administration; format: in vivo; details: for Stool Output: 6-h collection
Source text: (§1) For drug preparation and administration, the compounds were put into solution with sterile normal saline and sonicated briefly, if necessary. The drugs were made up at concentrations such that the rats received the drugs PO or SC at the rate of 1 cc per kilogram. Mice received the CHX(3,4,3)-trans IP at 1 cc per 100 grams. The solutions were made fresh the day of the study. Control animals received an equivalent amount of saline PO or SC.
Animal care and experimental procedures were approved by the Institutional Animal Care and Use Committee. Male Sprague-Dawley rats (250-350 g, Harlan Sprague-Dawley, Indianapolis, Ind.) were housed in polycarbonate cages in a temperature- and humidity-controlled room with a 12-hour light/dark cycle. The experiments were performed at the same time of the day to decrease diurnal variability. A typical experiment involved 20 rats: 5 saline-treated controls and 5 pretreated with polyamine analogues at each of three doses as either a SC injection or a PO gavage. The rats in the SC studies and in one set of experiments involving PO administration were allowed ad libitum access to a standard rodent diet and tap water until the morning of the experiment. Stress was initiated 30 minutes post drug as described below. In another set of experiments involving PO administration, the animals were fasted overnight but were allowed free access to water. […] In a final experiment, non-stressed control rats were injected with saline SC and housed in individual polycarbonate cages. The fecal output (number of pellets) of the stressed and unstressed animals was recorded at 30-min intervals for a 6-h period, during which they received no food or water.
(§2) To initiate the stress, water was added to each cage to a depth of at least 4.5 cm, i.e., within 0.5 cm of the top of the Pyrex dish. To avoid contact with water, the rats stand on the glass dish for the 6 h of the study. Stool output was expressed as the total number of fecal pellets excreted over the 6-h collection period. Percent reduction was calculated by dividing the mean value from the treated animals (T) by the mean value from the control animals (C), subtracting the resulting quotient from 1.0, and multiplying by 100 [i.e., (1.0−T/C)×100].
(§3) A one-tailed t-test assuming unequal variance was performed on the stool output data of the treated vs control (0 mg/kg) animals for each compound. A value of P<0.05 was considered significant.
The psychological stress-induced IBS model involves subjecting the rats to an aversive stimulus (water) and observing the increase in fecal output over a period of time. […] Control rats received an equivalent amount of saline SC.

[2] = tested on: stress-induced fecal output; experiment: Psychological stress-induced (water avoidance) IBS model, PO administration by gavage; format: in vivo, rat; details: for oral activity against stress-induced fecal output (in words): PO gavage, non-fasted rats, 11.6-115.6 μmol/kg; for Stool Output: 6-hr collection; for % Reduction: vs stressed controls, 6 hr
Source text: as §1
Animal care and experimental procedures were approved by the Institutional Animal Care and Use Committee. Male Sprague-Dawley rats (250-350 g, Harlan Sprague-Dawley, Indianapolis, Ind.) were housed in polycarbonate cages in a temperature- and humidity-controlled room with a 12-hour light/dark cycle. The experiments were performed at the same time of the day to decrease diurnal variability. A typical experiment involved 20 rats: 5 saline-treated controls and 5 pretreated with polyamine analogues at each of three doses as either a SC injection or a PO gavage. The rats in the SC studies and in one set of experiments involving PO administration were allowed ad libitum access to a standard rodent diet and tap water until the morning of the experiment. Stress was initiated 30 minutes post drug as described below. In another set of experiments involving PO administration, the animals were fasted overnight but were allowed free access to water. The animals were then stressed from ½ h to 2 h post-drug (data not shown). In a final experiment, non-stressed control rats were injected with saline SC and housed in individual polycarbonate cages. The fecal output (number of pellets) of the stressed and unstressed animals was recorded at 30-min intervals for a 6-h period, during which they received no food or water.
as §2, with “Once the drug had been administered, the animals were housed individually in polycarbonate cages containing a clear 70×50 mm Pyrex crystallization dish (Fisher, Pittsburgh, Pa.) inverted in the center and held in place with vacuum grease. To initiate” for “To initiate”
as §3
Because an orally active compound would be desirable for the treatment of IBS, selected analogues utilizing oral administration in the same model were assessed. In the initial studies animals were utilized that had been fasted overnight. Rodents were then given the drug of interest PO by gavage and stressed ½ h, 1 h, or 2 h post-drug. Unfortunately, because of the low baseline stool output in fasted control rats, the reductions in fecal output observed upon drug administration cannot be reported with any confidence (data not shown). Thereafter, only non-fasted animals were employed and were given the agents by gavage at doses of 11.6, 23.2, 57.8, or 115.6:mol/kg 30 minutes before initiating the stress. […] At doses of 11.6 and 23.2:mol/kg, CHX(3,4,3)-trans reduced stooling by about 80% (P=0.001 and <0.001, respectively). DEHSPM was effective at a dose of […]:mol/kg (40% diminution of fecal output; P<0.01), and DE(5,4,5) was active at doses of 23.2 and 57.8:mol/kg (55 and 73% reductions in fecal output, respectively; P<0.001 for both doses).

[3] = tested on: castor oil-induced diarrhea; details: doses equivalent to a 5 mg/kg dose of DEHSPM; cited from earlier work
[4] = 2.3 μmol/kg SC, stress 30 min post drug
[5] = Rattus norvegicus, 2.3 μmol/kg SC, vs stressed controls, 6 h, read-out: % Reduction
[6] = Rattus norvegicus, 11.6 μmol/kg SC, vs stressed controls, 6 h, read-out: % Reduction
[7] = Rattus norvegicus, 23.2 μmol/kg SC, vs stressed controls, 6 h, read-out: % Reduction
[8] = Rattus norvegicus, 57.8 μmol/kg SC, vs stressed controls, 6 h, read-out: % Reduction

| Structure (SMILES) | Stool Output [1, 4] | Stool Output ([1]; 11.6 μmol/kg SC) | Stool Output ([1]; 57.8 μmol/kg SC) | Stool Output ([1]; 23.2 μmol/kg SC) | inhibition in vivo at 11.6 µmol/kg [1, 6] [%] | inhibition in vivo at 57.8 µmol/kg [1, 8] [%] | other results |
| --- | --- | --- | --- | --- | --- | --- | --- |
| CC(C)NCCCNCCCNCCCNC(C)C [Compound 2] | 17.6 ± 5.5 number of fecal pellets | 13.6 ± 3.2 number of fecal pellets | 7.4 ± 3.6 number of fecal pellets |  |  |  | activity at diminishing stress-induced fecal output (in words) ([1]; SC administration to stressed rats): ineffective |
| CCCNCCCNCCCCNCCCNCCC [Compound 4] | 11.4 ± 7.2 number of fecal pellets | 11.5 ± 8.7 number of fecal pellets | 0.2 ± 0.4 number of fecal pellets | 5.7 ± 4.1 number of fecal pellets | 48 | 99 | inhibition in vivo at 2.3 µmol/kg [1, 5]: 49%; inhibition in vivo at 23.2 µmol/kg [1, 7]: 74% |
| CC(C)NCCCNCCCCNCCCNC(C)C [Compound 6, N^1,N^12 diisopropylspermine] |  | 1.6 ± 1.8 number of fecal pellets |  |  | 90 |  | Stool Output ([1]; 5.8 μmol/kg SC): 4.6 ± 2.3 number of fecal pellets; inhibition in vivo at 5.8 µmol/kg ([1]; Rattus norvegicus, 5.8 μmol/kg SC, vs stressed controls, 6 h, read-out: % Reduction): 70%; oral activity against stress-induced fecal output (in words) [2]: only CHX(3,4,3)-trans, DEHSPM, and DE(5,4,5) showed any activity at all |
| CC(C)CNCCCNCCCCNCCCNCC(C)C [Compound 7] | 15.9 ± 5.7 number of fecal pellets | 12.2 ± 2.7 number of fecal pellets |  | 6.6 ± 3.1 number of fecal pellets | 34 |  | toxic effects observed in stressed rats ([1]; 23.2 μmol/kg SC): ^gToxic effects were evident, including huddling in the corner of the cage.; inhibition in vivo at 23.2 µmol/kg [1, 7]: 64%; neurotoxicity in rats at subtherapeutic doses [3]: Signs of neurotoxicity |
| CC(C)CNCCCNCCCCNCCCN [Compound 8] | 14.8 ± 3.8 number of fecal pellets | 11.2 ± 2.2 number of fecal pellets |  | 10.6 ± 2.9 number of fecal pellets | 47 |  | toxic effects observed in stressed rats ([1]; 23.2 μmol/kg SC): ^gToxic effects were evident, including huddling in the corner of the cage.; inhibition in vivo at 2.3 µmol/kg [1, 5]: 30%; inhibition in vivo at 23.2 µmol/kg [1, 7]: 50% |
| CC(C)CCNCCCNCCCCNCCCNCCC(C)C [Compound 9] | 18.2 ± 2.8 number of fecal pellets | 14.6 ± 4.5 number of fecal pellets | 0 ± 0 number of fecal pellets |  |  | 100 | toxic effects observed in stressed rats ([1]; 57.8 μmol/kg SC): ^hDue to severe CNS toxicity, 3 of the 5 rats were removed after 4-4.5 h; neither of the remaining 2 rats had any stool output for the remainder of the study.; toxic effects observed in stressed rats ([1]; 57.8 μmol/kg SC, listed as DIPESPM): severe neurotoxicity; neurotoxicity in rats at subtherapeutic doses [3]: Signs of neurotoxicity |
| c1ccc(CNCCCNCCCCNCCCNCc2ccccc2)cc1 [Compound 10] | 12.6 ± 4.8 number of fecal pellets | 11.6 ± 2.9 number of fecal pellets | 8.4 ± 1.5 number of fecal pellets |  |  | 55 |  |
| FC(F)(F)c1ccccc1CCNCCCNCCCCNCCCNCCc1ccccc1C(F)(F)F [Compound 11] | 12.4 ± 2.1 number of fecal pellets | 13.6 ± 5.1 number of fecal pellets |  | 11.4 ± 2.1 number of fecal pellets |  |  |  |
| CCNCCCCCNCCCCNCCCCCNCC [Compound 14, N,N′-bis[5-(ethylamino)pentyl]-1,4-butanediamine] | 13.2 ± 6.3 number of fecal pellets | 2.2 ± 3.3 number of fecal pellets | 0 ± 0 number of fecal pellets |  | 88 | 100 | Stool Output ([2]; 11.6 μmol/kg PO): 15.2 ± 8.5 number of fecal pellets; Stool Output ([2]; 23.2 μmol/kg PO): 8.6 ± 4.9 number of fecal pellets; % Reduction ([2]; 23.2 μmol/kg PO): 55%; Stool Output ([2]; 57.8 μmol/kg PO): 5.1 ± 3.1 number of fecal pellets; % Reduction ([2]; 57.8 μmol/kg PO): 73% |
| C(CCNCCC1CCNCC1)CNCCC1CCNCC1 [Compound 15, N,N′-bis[2-(4-piperidinyl)ethyl]-1,4-diaminobutane] |  |  | 2.0 ± 2.0 number of fecal pellets |  |  | 82 | Stool Output ([1]; 2.32 μmol/kg SC): 8.8 ± 1.6 number of fecal pellets; Stool Output ([1]; 11.57 μmol/kg SC): 8.2 ± 3.1 number of fecal pellets; oral activity against stress-induced fecal output (in words) [2]: only CHX(3,4,3)-trans, DEHSPM, and DE(5,4,5) showed any activity at all |
| CCNCCCCCCNCCCNCCCNCC [Compound 16] |  |  | 0.4 ± 0.9 number of fecal pellets |  |  | 97 | Stool Output ([1]; 2.31 μmol/kg SC): 10.4 ± 5.2 number of fecal pellets; Stool Output ([1]; 11.56 μmol/kg SC): 9.4 ± 4.1 number of fecal pellets; toxic effects observed in stressed rats ([1]; 57.8 μmol/kg SC): ^iThe rats were quite lethargic, as though sedated, after drug administration. |
| CC(C)NCCCCCCNCCCNCCCNC(C)C [Compound 17] |  |  | 0 ± 0 number of fecal pellets |  |  | 100 | toxic effects observed in stressed rats ([1]; 2.32 μmol/kg SC): ^iThe rats were quite lethargic, as though sedated, after drug administration.; Stool Output ([1]; 2.32 μmol/kg SC): 1.4 ± 1.9 number of fecal pellets; toxic effects observed in stressed rats ([1]; 11.56 μmol/kg SC): ^iThe rats were quite lethargic, as though sedated, after drug administration.; Stool Output ([1]; 11.56 μmol/kg SC): 0 ± 0 number of fecal pellets; toxic effects observed in stressed rats ([1]; 57.8 μmol/kg SC): ^iThe rats were quite lethargic, as though sedated, after drug administration.; inhibition in vivo at 2.32 µmol/kg ([1]; Rattus norvegicus, 2.32 μmol/kg SC, vs stressed controls, 6 h, read-out: % Reduction): 84%; inhibition in vivo at 11.56 µmol/kg ([1]; Rattus norvegicus, 11.56 μmol/kg SC, vs stressed controls, 6 h, read-out: % Reduction): 100% |
